Test results reported in patent US20260198495A1, “BINARY INSECTICIDE COMPOSITION AND USE THEREOF” (SHENYANG SINOCHEM AGROCHEMICALS R & D CO., LTD., priority 2022, published 2026).
≈ marks a conversion by molar mass, not a printed value.

Legend:
Assay type in all cases: in vivo
[1] = test system: 3rd-instar larvae of Agrotis ipsilon (Rottemberg); assay: whole plant or invertebrate; details: A = compound I-72, B = metalaxyl-M; insect-dipping; 72 hours
Protocol: Test conditions: temperature: 24-26° C., humidity: RH 60%, and illumination: L:D=14:10
(§1) Preparation of the pesticide solution: according to different test requirements, the test samples were accurately weighed respectively with an electronic analytical balance. The technical pesticides were dissolved in acetone, and then diluted with 0.1% Tween 80 water into a series of pesticide solutions with a certain concentration gradient according to the experimental design dosage.
(§2) The target insects were dipped into the pesticide solution for 10 s and then taken out. Excess pesticide solution was absorbed with filter paper. […] A treatment without the pesticide was set as the blank control.
(§3) The number of dead and live insects was investigated 72 hours later. The corrected mortality rate was calculated using the Abbott's formula, and statistical analysis was performed with the DPS data processing software to obtain the toxicity regression equation and LC50 value of each single test pesticide and each mixture of different ratios.

[2] = test system: adult Bemisia tabaci (Gennadius); assay: Joint toxicity of I-72 + pyraclostrobin, cotton seedling spraying, Example 83, Table 83; details: 72 h
Protocol: as §1
The corrected mortality rate was calculated using the Abbott's formula, and statistical analysis was performed with the DPS data processing software to obtain the toxicity regression equation and LC50 value of each single test pesticide and each mixture of different ratios.

[3] = test system: Bemisia tabaci (Gennadius) nymphs; assay: Joint toxicity of I-72 + pyrifluquinazon, Example 77, Table 77; details: A = compound I-72, B = pyrifluquinazon; cotton leaf-disk spraying; 96 hours
Protocol: (§4) Test target: Bemisia tabaci (Gennadius) nymphs, a sensitive strain reared indoors.
as §1
(§5) Experimental method: first, cotton leaves with neat and consistent Bemisia tabaci (Gennadius) nymphs were selected and made into leaf disks, with about 20 insects on each leaf disk. Then, they were evenly sprayed with the pesticide solution in the order from low dosage to high dosage according to the experimental design, with 1.5 mL for each leaf and 3 replicates for each treatment. In addition, a blank control was set up.
(§6) The treated test materials were placed in an observation room, and the temperature, humidity and illumination of the observation room could be adjusted as needed. The number of dead and live insects was investigated 96 hours later. […] Then, the co-toxicity coefficient of each ratio was calculated using the Sun Y-P method to evaluate the mixing effect (the same as in Example 1).

[4] = test system: Nilaparvata lugens (Stal) nymphs; assay: Joint toxicity of I-72 + triflumezopyrim, Example 75, Table 75; details: A = compound I-72, B = triflumezopyrim; potted-seedling spraying; 72 hours
Protocol: Test target: Nilaparvata lugens (Stal) nymphs, a sensitive strain reared indoors.
as §1
Experimental method: the activity of the mixture against the Nilaparvata lugens (Stal) nymphs was determined by adopting the potted-seedling spraying method. First, rice seedlings were planted in culture pots. Uniform spraying was performed with the pesticide solution in the order from low dosage to high dosage according to the experimental design, with 2 mL for each seedling. Then, Nilaparvata lugens nymphs of uniform size were transferred onto the rice seedlings, with 3 replicates for each treatment. In addition, a blank control was set up.
as §6, with “72” for “96”

[5] = test system: Aphis gossypii Glover nymphs; assay: Joint toxicity of I-72 + flonicamid, Example 74, Table 74; details: A = compound I-72, B = flonicamid; cotton leaf spraying; 48 hours
Protocol: Test target: Aphis gossypii Glover nymphs, a sensitive strain reared indoors.
as §1
as §5, with “uniform” for “neat”, “Aphis gossypii” for “Bemisia tabaci (Gennadius) nymphs”, “selected,” for “selected and made into leaf disks,”, “30-40” for “20”, “leaf.” for “leaf disk.”
as §6, with “48” for “96”

[6] = test system: Thrips flavus Schrank nymphs; assay: Joint toxicity of I-72 + flonicamid, Example 78, Table 78; details: A = compound I-72, B = flonicamid; eggplant seedling spraying; 48 hours
Protocol: Test target: Thrips flavus Schrank nymphs.
as §1
Experimental method: first, eggplant seedlings with Thrips flavus Schrank were selected, and the base number was counted. Then, uniform spraying was performed with the pesticide solution in the order from low to high doses according to the experimental design, with 2 mL for each seedling and 3 replicates for each treatment. In addition, a blank control was set up.
as §6, with “48” for “96”

[7] = test system: 3rd-instar larvae of Agrotis ipsilon (Rottemberg); assay: Joint toxicity of I-72 + SYP-1620, fludioxonil, insect-dipping, Example 80, Table 80
Protocol: as §1, §2, §3

[8] = test system: Aphis citricola van der Goot nymphs; assay: Joint toxicity of I-72 + nicotine, Example 72, Table 72; details: A = compound I-72, B = nicotine, apple leaf spraying, 48 hours
Protocol: Test target: Aphis citricola van der Goot nymphs.
as §1
as §5, with “apple” for “cotton”, “uniform” for “neat”, “Aphis citricola van der Goot” for “Bemisia tabaci (Gennadius) nymphs”, “selected,” for “selected and made into leaf disks,”, “30-40” for “20”, “leaf.” for “leaf disk.”
as §6, with “48” for “96”

[9] = test system: adult Tetranychus urticae Koch; assay: Joint toxicity of I-72 + cyetpyrafen, Example 85, Table 85; details: A = compound I72, B = cyetpyrafen; potted-seedling spraying; 72 hours
Protocol: Test target: adult Tetranychus urticae Koch, a sensitive strain reared indoors.
as §1
(§7) Experimental method: the activity of the mixture against the adult Tetranychus urticae Koch was determined by adopting the potted-seedling spraying method. First, the adult Tetranychus urticae Koch of uniform size were transferred onto the leaves of kidney bean seedlings at the stage when the first pair of true leaves was fully expanded. After the adult mites had stabilized, the base number was counted. Then, the uniform spraying was performed with the pesticide solution in the order from low to high dose according to the experimental design, with 1.5 mL for each seedling and 3 replicates for each treatment. […]
as §6, with “needed.” for “needed. The number of dead and live insects was investigated 96 hours later.”

[10] = test system: adult Tetranychus cinnabarinus (Boisduval); assay: Joint toxicity of I-72 + pyridaben, Example 84, Table 84; details: 72 h
Protocol: Test target: adult Tetranychus cinnabarinus (Boisduval), a sensitive strain reared indoors.
as §1
as §7, with “adult Tetranychus cinnabarinus (Boisduval) was determined” for “adult Tetranychus urticae Koch was determined”, “adult Tetranychus cinnabarinus of uniform” for “adult Tetranychus urticae Koch of uniform”
as §6, with “needed.” for “needed. The number of dead and live insects was investigated 96 hours later.”, “effect,” for “effect (the same”, “1.” for “1).”

[11] = test system: Unaspis yanonensis Kuwana nymphs; assay: Joint toxicity of I-72 + afidopyropen, Example 76, Table 76; details: A = compound I-72, B = afidopyropen; citrus leaf dipping; 120 hours
Protocol: Test target: Unaspis yanonensis Kuwana nymphs.
as §1
Experimental method: the activity of the mixture against Unaspis yanonensis Kuwana nymphs on citrus was determined by adopting the dipping method. First, the collected citrus leaves with Unaspis yanonensis Kuwana nymphs were treated with the pesticide solution in the order from low dosage to high dosage according to the experimental design. After air-drying, the petioles were kept moist with degreased cotton, and then the leaves were placed in a Petri dish, with 3 replicates for each treatment. In addition, a blank control was set up.
as §6, with “120” for “96”

[12] = test system: Bemisia tabaci (Gennadius) nymphs; assay: Joint toxicity of I-72 + thiacloprid, Example 71, Table 71; details: in Gossypium hirsutum, 96 h
Protocol: as §4, §1, §5, §6

[13] = test system: 3rd-instar larvae of Ostrinia furnacalis Guenee; assay: Joint toxicity of I-72 + pymetrozine, Example 79, Table 79; details: in Zea mays, 72 h
Protocol: Test target: 3rd-instar larvae of Ostrinia furnacalis Guenee.
as §1
Experimental method: first, tender corn stems were selected and dipped in the prepared pesticide solution for 10 s in the order from low dosage to high dosage according to the experimental design. After natural air-drying in the shade, they were placed in a 9-cm-diameter Petri dish with filter paper, and uniform and healthy test insects were introduced, with 10 insects for each treatment and 3 replicates for each treatment. In addition, a blank control was set up.
as §6, with “72” for “96”

[14] = test system: Myzus persicae (Sulzer) nymphs; assay: Joint toxicity of I-72 + pymetrozine, Example 73, Table 73; details: in Brassica oleracea, 48 h
Protocol: Test target: Myzus persicae (Sulzer) nymphs, a sensitive strain reared indoors.
as §1
Experimental method: first, cabbage leaves with uniform and consistent Myzus persicae (Sulzer) were selected, with about 30-40 insects on each leaf. Then, they were evenly sprayed with the pesticide solution in the order from low dosage to high dosage according to the experimental design, with 1.5 mL of the solution for each leaf and 3 replicates for each treatment. In addition, a blank control was set up.
as §6, with “48” for “96”, “effect,” for “effect (the same”, “1.” for “1).”

COCC(=O)N(c1c(C)cccc1C)[C@H](C)C(=O)OC [metalaxyl-M]
LC50 [1]: 401.2975 mg/L (≈ 1440 µM)

COC(=O)N(OC)c1ccccc1COc1ccn(-c2ccc(Cl)cc2)n1 [pyraclostrobin]
LC50 [2]: 424 mg/L

CC(=O)N1C(=O)N(NCc2cccnc2)Cc2cc(C(F)(C(F)(F)F)C(F)(F)F)ccc21 [pyrifluquinazon]
LC50 [3]: 10.6205 mg/L

O=c1c(-c2cccc(C(F)(F)F)c2)c([O-])[n+](Cc2cncnc2)c2ccccn12 [triflumezopyrim]
LC50 [4]: 0.8838 mg/L

N#CCNC(=O)c1cnccc1C(F)(F)F [flonicamid]
LC50 [5]: 2.3954 mg/L | LC50 [6]: 50.8013 mg/L

CNC(=O)/C(=N/OC)c1ccccc1CO/N=C(C)/C=C/c1c(Cl)cccc1Cl [SYP-1620]
LC50 ([7]; A = compound I-72, B = SYP-1620, 72 hours): 361.2037 mg/L

CN1CCC[C@H]1c1cccnc1 [nicotine]
LC50 [8]: 8.19 mg/L

CCn1nc(C)cc1/C(OC(=O)C(C)(C)C)=C(/C#N)c1ccc(C(C)(C)C)cc1 [cyetpyrafen]
LC50 [9]: 0.6118 mg/L

CC(C)(C)c1ccc(CSc2cnn(C(C)(C)C)c(=O)c2Cl)cc1 [pyridaben]
LC50 [10]: 10.8 mg/L

C[C@]1(COC(=O)C2CC2)[C@@H]2C[C@H](O)[C@@]3(C)Oc4cc(-c5cccnc5)oc(=O)c4[C@H](O)[C@@H]3[C@@]2(C)CC[C@@H]1OC(=O)C1CC1 [afidopyropen]
LC50 [11]: 2.8361 mg/L

N#C/N=C1\SCCN1Cc1ccc(Cl)nc1 [thiacloprid]
LC50 [12]: 6.26 mg/L

N#Cc1c[nH]cc1-c1cccc2c1OC(F)(F)O2 [fludioxonil]
LC50 ([7]; Agrotis ipsilon, A = compound I-72, B = fludioxonil, 72 hours, read-out: LC50): 391 mg/L

CC1=NNC(=O)N(/N=C/c2cccnc2)C1 [pymetrozine]
LC50 [13]: 300 mg/L | LC50 [14]: 5.51 mg/L
